Laboratory results published in patent publication US12568967B2, “Compositions comprising pyridine carboxylate herbicides with synthetic auxin herbicides or auxin transport inhibitors” (priority 2018, dated 2026).
Read-outs that look alike come from different tables or passages of the source.

Tests used:
[1] = test system: Polygonum convolvulus (wild buckwheat, POLCO); assay: Greenhouse postemergence trial POLCO; type: in vivo; settings: Fallopia convolvulus, post-emergence, read-out: % visual injury Obs
[2] = test system: Matricaria chamomilla (wild chamomile, MATCH); assay: Greenhouse postemergence trial MATCH; type: in vivo; settings: Matricaria chamomilla, post-emergence, MATCH, read-out: % visual injury Obs;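 note: greenhouse plants sprayed at second to third true leaf stage, injury rated by eye 20-22 d later versus solvent-blank controls on 0–100 scale, 0 no injury, 100 complete kill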
[3] = test system: Cyanus segetum (cornflower, CENCY); assay: Greenhouse postemergence trial CENCY; type: in vivo; settings: for % visual injury: c1-3 Compound A 7.5/10/15
[4] = test system: Stellaria media (chickweed, STEME); assay: Greenhouse postemergence trial STEME; type: in vivo; settings: for % visual injury: c1-3 Compound A 7.5/10/15
[5] = test system: Matricaria inodora (false chamomile, MATIN); assay: Greenhouse postemergence trial MATIN; type: in vivo; settings: for % visual injury: c1-3 Compound A 7.5/10/15
[6] = test system: Capsella bursa-pastoris (shepherd's purse, CAPBP); assay: Greenhouse postemergence trial CAPBP; type: in vivo; settings: for % visual injury: c1-3 Compound A 7.5/10/15
[7] = test system: Triticum aestivum (spring wheat, TRZAS); type: in vivo; settings: for % visual injury Obs: TRZAS; for % visual injury (crop phytotoxicity): c1-3 Compound A 7.5/10/15
[8] = test system: Matricaria discoidea (pineapple weed, MATMT); assay: Greenhouse postemergence trial MATMT; type: in vivo; settings: for % visual injury: c1-3 Compound A 7.5/10/15
[9] = test system: Kochia scoparia (kochia, KCHSC); assay: Greenhouse postemergence trial KCHSC; type: in vivo; settings: Bassia scoparia, post-emergence, KCHSC, read-out: % visual injury Obs
[10] = test system: Cirsium arvense (Canadian thistle, CIRAR); assay: Greenhouse postemergence trial CIRAR; type: in vivo; settings: Cirsium arvense, post-emergence, CIRAR, read-out: % visual injury Obs
Description: (§1) Seeds of the desired test plant species were planted in a 90:10% v/v (volume/volume) mixture of PRO-MIX® BX (Premier Tech Horticulture, Quakertown, PA, USA) and PROFILE® GREENS GRADE™ (Profile Products LLC, Buffalo Grove, IL, USA) planting mixture, which typically has a pH of 5.2 to 6.2 and an organic matter content of at least 50 percent, in plastic pots with a surface area of 103.2 square centimeters (cm^2). […] The plants were grown for 7-36 days (d) in a greenhouse with an approximate 14-hour (h) photo-period which was maintained at about 23° C. during the day and 22° C. during the night. Nutrients and water were added on a regular basis and supplemental lighting was provided with overhead metal halide 1000-Watt lamps as necessary. The plants were employed for testing when they reached the second or third true leaf stage.
(§2) Emulsifiable concentrates of each of each pyridine carboxylate herbicide (Compound A or Compound B) were prepared at 100 grams acid equivalent per liter (g ae/L). The emulsifiable concentrates also included a safener, cloquintocet-mexyl, at 120 grams active ingredient per liter (g ai/L), unless otherwise noted below. An aliquot of each emulsifiable concentrate was placed in a 25 mL glass vial and diluted with an aqueous mixture of 1.25% (v/v) ACTIROB® B esterified rapeseed oil (Bayer Crop Science, Research Triangle Park, NC, USA) or MSO® Concentrate with LECI-TECH® methylated soybean oil (Loveland Products, Loveland, CO, USA) to obtain concentrated stock solutions at the highest application rate for each herbicide, based upon a 12 milliliter (mL) application volume at a rate of 187 liters per hectare (L/ha). The concentrated stock solutions were further diluted with an aqueous mixture of 1.25% v/v ACTIROB® B or MSO® Concentrate with LECI-TECH® to obtain stock solutions at reduced application rates for each herbicide. Spray solutions of the herbicide combinations (Compound A or Compound B plus synthetic auxin herbicide or auxin transport inhibitor) were prepared by adding weighed amounts or aliquots of the synthetic auxin herbicide or auxin transport inhibitor to the stock solutions of Compound A or Compound B to form 12-mL spray solutions in two-way combinations.
(§3) The spray solutions were applied to the plant material with an overhead Mandel track sprayer equipped with 8002E nozzles calibrated to deliver 187 L/ha over an application area of 0.503 square meters (m^2) at a spray height of 18 inches (43 centimeters (cm)) above the average plant canopy. Control plants were sprayed in the same manner with the solvent blank. All pyridine carboxylate herbicide (component a) application rates are given as “g ae/ha” and all synthetic auxin herbicide or auxin transport inhibitor (component b) application rates are given as “g ai/ha.”
(§4) The treated plants and control plants were placed in a greenhouse as described above and watered by sub-irrigation to prevent wash-off of the test compounds. After 20-22 d, the condition of the test plants as compared with that of the control plants was determined visually and scored on a scale of 0 to 100 percent where 0 corresponds to no injury and 100 corresponds to complete kill.

[11] = test system: Hordeum vulgare (spring barley, HORVS); type: in vivo; settings: for % visual injury Obs: HORVS; for % visual injury (crop phytotoxicity): c1-3 Compound A 7.5/10/15
[12] = test system: Veronica hederifolia (ivyleaf speedwell, VERHE); assay: Greenhouse postemergence trial VERHE; type: in vivo; settings: for % visual injury: c1-3 Compound A 7.5/10/15
[13] = test system: Anthemis arvensis (field chamomile, ANTAR); assay: Greenhouse postemergence trial ANTAR; type: in vivo; settings: for % visual injury: c1-3 Compound A 7.5/10/15
[14] = test system: Galium aparine (cleavers, GALAP); assay: Greenhouse postemergence trial GALAP; type: in vivo; settings: c1-3 Compound A 7.5/10/15
Description: as §1, §2, §3, §4

[15] = test system: Veronica persica (bird's-eye speedwell, VERPE); assay: Greenhouse postemergence trial VERPE; type: in vivo; settings: for % visual injury: c1-3 Compound A 7.5/10/15
Description: as §1, §2, §3, §4

[16] = test system: Triticum aestivum (winter wheat, TRZAW); assay: Greenhouse postemergence crop phytotoxicity TRZAW; type: in vivo; settings: for % visual injury Obs: TRZAW; for % visual injury (crop phytotoxicity): c1-3 Compound A 7.5/10/15
Description: as §1, §2, §3, §4

[17] = test system: Papaver rhoeas (corn poppy, PAPRH); assay: Greenhouse postemergence trial PAPRH; type: in vivo; settings: for % visual injury: c1-3 Compound A 7.5/10/15
[18] = test system: Papaver rhoeas (corn poppy), herbicide-resistant (PAPRH-R); assay: Greenhouse postemergence trial PAPRH-R; type: in vivo; settings: for % visual injury: c1-3 Compound A 7.5/10/15
[19] = test system: Lamium purpureum (purple deadnettle, LAMPU); assay: Greenhouse postemergence trial LAMPU; settings: for % visual injury: c1-3 Compound A 7.5/10/15
[20] = test system: Salsola kali (Russian thistle, SASKR); assay: Greenhouse postemergence trial SASKR; type: in vivo; settings: Salsola kali, post-emergence, SASKR, read-out: % visual injury Obs;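 note: greenhouse plants sprayed at second or third true leaf stage, injury rated by eye after 20-22 d against solvent-blank controls, 0 meaning no injury, 100 complete kill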
[21] = test system: Viola tricolor (wild pansy, VIOTR); assay: Greenhouse postemergence trial VIOTR; settings: for % visual injury: c1-3 Compound A 7.5/10/15;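 for all read-outs here: greenhouse plants sprayed at second to third true leaf stage, injury rated visually after 20-22 d against solvent-blank sprayed controls, 0 meaning no injury and 100 complete kill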
[22] = test system: Viola arvensis (field violet, VIOAR); assay: Greenhouse postemergence trial VIOAR; type: in vivo; settings: for % visual injury: c1-3 Compound A 7.5/10/15
Description: as §1, §2, §3, §4

[23] = test system: Hordeum vulgare (winter barley, HORVW); assay: Greenhouse postemergence crop phytotoxicity HORVW; type: in vivo; settings: for % visual injury Obs: HORVW; for % visual injury (crop phytotoxicity): c1-3 Compound A 7.5/10/15
Description: as §1, §2, §3, §4

[24] = test system: Sinapis arvensis (wild mustard, SINAR); assay: Greenhouse postemergence trial SINAR; type: in vivo; settings: Mutarda arvensis, post-emergence, SINAR, read-out: % visual injury Obs
[25] = test system: Brassica napus (winter rape, BRSNW); assay: Greenhouse postemergence trial BRSNW; type: in vivo; settings: Brassica napus, post-emergence, read-out: % visual injury Obs
[26] = c4 Aminopyralid 5, c5-7 A 7.5/10/15 + Aminopyralid 5 g/ha
[27] = Papaver rhoeas, post-emergence, read-out: % visual injury Obs
[28] = Lamium purpureum, post-emergence, read-out: % visual injury Obs
[29] = Viola tricolor, post-emergence, read-out: % visual injury Obs
[30] = c4 Halauxifen-methyl 6, c5-7 A 7.5/10/15 + Halauxifen-methyl 6 g/ha

Nc1cc(Cl)nc(C(=O)O)c1Cl [Aminopyralid, aminopyralid, reference compound]
pest or weed control at 10 g/ha [1]: 75% | pest or weed control at 10 g/ha ([2]; Aminopyralid 10 g/ha): 10% | pest or weed control at 10 g/ha ([3]; Centaurea cyanus, post-emergence, read-out: % visual injury Obs): 65% | % visual injury [3, 26]: 50% | pest or weed control at 10 g/ha ([4]; Stellaria media, post-emergence, read-out: % visual injury Obs): 5% | % visual injury [4, 26]: 0% | pest or weed control at 10 g/ha ([5]; Tripleurospermum inodorum, post-emergence, read-out: % visual injury Obs): 60% | % visual injury [5, 26]: 10% | pest or weed control at 10 g/ha ([6]; Capsella bursa-pastoris, post-emergence, read-out: % visual injury Obs): 0% | % visual injury [6, 26]: 0% | % visual injury Obs ([7]; Aminopyralid 10 g/ha): 0% | % visual injury (crop phytotoxicity) [7, 26]: 0% | pest or weed control at 10 g/ha ([8]; Matricaria discoidea, post-emergence, read-out: % visual injury Obs): 0% | % visual injury [8, 26]: 0% | pest or weed control at 10 g/ha ([9]; Aminopyralid 10 g/ha): 10% | pest or weed control at 10 g/ha ([10]; Aminopyralid 10 g/ha): 60% | % visual injury Obs ([11]; Aminopyralid 10 g/ha): 0% | % visual injury (crop phytotoxicity) [11, 26]: 0% | pest or weed control at 10 g/ha ([12]; Veronica hederifolia, post-emergence, read-out: % visual injury Obs): 25% | % visual injury [12, 26]: 0% | pest or weed control at 10 g/ha ([13]; Anthemis arvensis, post-emergence, read-out: % visual injury Obs): 60% | % visual injury [13, 26]: 10% | % visual injury [14, 26]: 60% | pest or weed control at 10 g/ha ([15]; Veronica persica, post-emergence, read-out: % visual injury Obs): 10% | % visual injury [15, 26]: 0% | % visual injury Obs ([16]; Aminopyralid 10 g/ha): 0% | % visual injury (crop phytotoxicity) [16, 26]: 0% | pest or weed control at 10 g/ha [17, 27]: 65% | % visual injury [17, 26]: 30% | pest or weed control at 10 g/ha [18, 27]: 65% | % visual injury [18, 26]: 50% | pest or weed control at 10 g/ha [19, 28]: 10% | % visual injury [19, 26]: 0% | pest or weed control at 10 g/ha ([20]; Aminopyralid 10 g/ha): 20% | pest or weed control at 10 g/ha [21, 29]: 10% | % visual injury [21, 26]: 0% | pest or weed control at 10 g/ha ([22]; Viola arvensis, post-emergence, read-out: % visual injury Obs): 10% | % visual injury [22, 26]: 25% | % visual injury Obs ([23]; Aminopyralid 10 g/ha): 0% | % visual injury (crop phytotoxicity) [23, 26]: 0% | pest or weed control at 10 g/ha ([24]; Aminopyralid 10 g/ha): 20% | plant injury at 10 g/ha [25]: 10%

COC(=O)c1nc(-c2ccc(Cl)c(OC)c2F)cc(N)c1Cl [Halauxifen-methyl, halauxifen-methyl, reference compound]
pest or weed control at 3 g/ha ([1]; POLCO, Halauxifen-methyl 3 g/ha): 80% | pest or weed control at 3 g/ha ([2]; Halauxifen-methyl 3 g/ha): 10% | pest or weed control at 3 g/ha ([3]; Centaurea cyanus, post-emergence, CENCY, Halauxifen-methyl 3 g/ha, read-out: % visual injury Obs): 90% | % visual injury [3, 30]: 97% | pest or weed control at 3 g/ha ([4]; Stellaria media, post-emergence, STEME, Halauxifen-methyl 3 g/ha, read-out: % visual injury Obs): 30% | % visual injury [4, 30]: 65% | pest or weed control at 3 g/ha ([5]; Tripleurospermum inodorum, post-emergence, MATIN, Halauxifen-methyl 3 g/ha, read-out: % visual injury Obs): 0% | % visual injury [5, 30]: 10% | pest or weed control at 3 g/ha ([6]; Capsella bursa-pastoris, post-emergence, CAPBP, Halauxifen-methyl 3 g/ha, read-out: % visual injury Obs): 75% | % visual injury [6, 30]: 70% | % visual injury Obs ([7]; Halauxifen-methyl 3 g/ha): 0% | % visual injury (crop phytotoxicity) [7, 30]: 0% | pest or weed control at 3 g/ha ([8]; Matricaria discoidea, post-emergence, MATMT, Halauxifen-methyl 3 g/ha, read-out: % visual injury Obs): 0% | % visual injury [8, 30]: 65% | pest or weed control at 3 g/ha ([9]; Halauxifen-methyl 3 g/ha): 50% | pest or weed control at 3 g/ha ([10]; Halauxifen-methyl 3 g/ha): 65% | % visual injury Obs ([11]; Halauxifen-methyl 3 g/ha): 0% | % visual injury (crop phytotoxicity) [11, 30]: 0% | pest or weed control at 3 g/ha ([12]; Veronica hederifolia, post-emergence, VERHE, Halauxifen-methyl 3 g/ha, read-out: % visual injury Obs): 10% | % visual injury [12, 30]: 10% | pest or weed control at 3 g/ha ([13]; Anthemis arvensis, post-emergence, ANTAR, Halauxifen-methyl 3 g/ha, read-out: % visual injury Obs): 50% | % visual injury [13, 30]: 40% | % visual injury [14, 30]: 95% | pest or weed control at 3 g/ha ([15]; Veronica persica, post-emergence, VERVE, Halauxifen-methyl 3 g/ha, read-out: % visual injury Obs): 20% | % visual injury [15, 30]: 10% | % visual injury Obs ([16]; Halauxifen-methyl 3 g/ha): 0% | % visual injury (crop phytotoxicity) [16, 30]: 0% | pest or weed control at 3 g/ha ([17]; Papaver rhoeas, post-emergence, PAPRH, Halauxifen-methyl 3 g/ha, read-out: % visual injury Obs): 70% | % visual injury [17, 30]: 70% | pest or weed control at 3 g/ha ([18]; Papaver rhoeas, post-emergence, PAPRH-R, Halauxifen-methyl 3 g/ha, read-out: % visual injury Obs): 65% | % visual injury [18, 30]: 60% | pest or weed control at 3 g/ha [19, 28]: 97% | % visual injury [19, 30]: 85% | pest or weed control at 3 g/ha ([20]; Halauxifen-methyl 3 g/ha): 50% | pest or weed control at 3 g/ha [21, 29]: 60% | % visual injury [21, 30]: 10% | pest or weed control at 3 g/ha ([22]; Viola arvensis, post-emergence, VIOAR, Halauxifen-methyl 3 g/ha, read-out: % visual injury Obs): 10% | % visual injury [22, 30]: 5% | % visual injury Obs ([23]; Halauxifen-methyl 3 g/ha): 0% | % visual injury (crop phytotoxicity) [23, 30]: 0% | pest or weed control at 3 g/ha ([24]; Halauxifen-methyl 3 g/ha): 70% | plant injury at 3 g/ha ([25]; BRSNW, Halauxifen-methyl 3 g/ha): 30%
